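Each compound was tested at five concentrations against cells in 96-well plates for 48 hours. GI50: concentration for 50% inhibition of growth. TGI: total growth inhibition.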
Assays:
Experiment in all cases: inhibition of tumour cell growth, NCI panel, 48 h
786-0 renal = tested on: 786-0 renal
A498 renal = tested on: A498 renal
A549 NSCLC = tested on: A549 NSCLC
ACHN renal = tested on: ACHN renal
BT-549 breast = tested on: BT-549 breast
CAKI-1 renal = tested on: CAKI-1 renal
CCRF-CEM leukemia = tested on: CCRF-CEM leukemia
COLO 205 colon = tested on: COLO 205 colon
DU-145 prostate = tested on: DU-145 prostate
EKVX NSCLC = tested on: EKVX NSCLC
HCC-2998 colon = tested on: HCC-2998 colon
HCT-116 colon = tested on: HCT-116 colon
HCT-15 colon = tested on: HCT-15 colon
HL-60(TB) leukemia = tested on: HL-60(TB) leukemia
HOP-62 NSCLC = tested on: HOP-62 NSCLC
HOP-92 NSCLC = tested on: HOP-92 NSCLC
HS 578T breast = tested on: HS 578T breast
HT29 colon = tested on: HT29 colon
IGROV1 ovarian = tested on: IGROV1 ovarian
K-562 leukemia = tested on: K-562 leukemia
KM12 colon = tested on: KM12 colon
LOX IMVI melanoma = tested on: LOX IMVI melanoma
M14 melanoma = tested on: M14 melanoma
MALME-3M melanoma = tested on: MALME-3M melanoma
MCF7 breast = tested on: MCF7 breast
MDA-MB-231 breast = tested on: MDA-MB-231 breast
MDA-MB-435 = tested on: MDA-MB-435
MOLT-4 leukemia = tested on: MOLT-4 leukemia
NCI-H226 lung = tested on: NCI-H226 lung
NCI-H23 lung = tested on: NCI-H23 lung
NCI-H460 lung = tested on: NCI-H460 lung
NCI-H522 lung = tested on: NCI-H522 lung
NCI/ADR-RES ovarian = tested on: NCI/ADR-RES ovarian
OVCAR-3 ovarian = tested on: OVCAR-3 ovarian
OVCAR-4 ovarian = tested on: OVCAR-4 ovarian
OVCAR-5 ovarian = tested on: OVCAR-5 ovarian
OVCAR-8 ovarian = tested on: OVCAR-8 ovarian
PC-3 prostate = tested on: PC-3 prostate
RPMI-8226 leukemia = tested on: RPMI-8226 leukemia
RXF 393 renal = tested on: RXF 393 renal
SF-268 CNS = tested on: SF-268 CNS
SF-295 CNS = tested on: SF-295 CNS
SF-539 CNS = tested on: SF-539 CNS
SK-MEL-2 melanoma = tested on: SK-MEL-2 melanoma
SK-MEL-28 melanoma = tested on: SK-MEL-28 melanoma
SK-MEL-5 melanoma = tested on: SK-MEL-5 melanoma
SK-OV-3 ovarian = tested on: SK-OV-3 ovarian
SN12C renal = tested on: SN12C renal
SNB-19 CNS = tested on: SNB-19 CNS
SNB-75 CNS = tested on: SNB-75 CNS
SW-620 colon = tested on: SW-620 colon
T-47D breast = tested on: T-47D breast
TK-10 renal = tested on: TK-10 renal
U251 CNS = tested on: U251 CNS
UACC-257 melanoma = tested on: UACC-257 melanoma
UACC-62 melanoma = tested on: UACC-62 melanoma
UO-31 renal = tested on: UO-31 renal

Q: Which results are given for COc1ccc2nc3cc(Cl)ccc3c(NCCCNCCO)c2c1?
A: GI50 (786-0 renal): 531 nM; TGI (786-0 renal): 1960 nM; GI50 (A498 renal): 197 nM; TGI (A498 renal): 1500 nM; GI50 (A549 NSCLC): 378 nM; TGI (A549 NSCLC): 2060 nM; GI50 (ACHN renal): 403 nM; TGI (ACHN renal): 3250 nM; GI50 (BT-549 breast): 1890 nM; TGI (BT-549 breast): 3710 nM; GI50 (CAKI-1 renal): 816 nM; TGI (CAKI-1 renal): 3550 nM; GI50 (CCRF-CEM leukemia): 476 nM; TGI (CCRF-CEM leukemia): 2280 nM; GI50 (COLO 205 colon): 241 nM; TGI (COLO 205 colon): 1140 nM; GI50 (DU-145 prostate): 480 nM; TGI (DU-145 prostate): 2770 nM; GI50 (EKVX NSCLC): 1170 nM; TGI (EKVX NSCLC): 4190 nM; GI50 (HCC-2998 colon): 609 nM; TGI (HCC-2998 colon): 2170 nM; GI50 (HCT-116 colon): 326 nM; TGI (HCT-116 colon): 1430 nM; GI50 (HCT-15 colon): 577 nM; TGI (HCT-15 colon): 3150 nM; GI50 (HL-60(TB) leukemia): 613 nM; TGI (HL-60(TB) leukemia): 2640 nM; GI50 (HOP-62 NSCLC): 393 nM; TGI (HOP-62 NSCLC): 2140 nM; GI50 (HOP-92 NSCLC): 1200 nM; TGI (HOP-92 NSCLC): 3450 nM; GI50 (HS 578T breast): 1480 nM; TGI (HS 578T breast): 5620 nM; GI50 (HT29 colon): 292 nM; TGI (HT29 colon): 1410 nM; GI50 (IGROV1 ovarian): 577 nM; TGI (IGROV1 ovarian): 3180 nM; GI50 (K-562 leukemia): 383 nM; TGI (K-562 leukemia): 2400 nM; GI50 (KM12 colon): 498 nM; TGI (KM12 colon): 2810 nM; GI50 (LOX IMVI melanoma): 294 nM; TGI (LOX IMVI melanoma): 1120 nM; GI50 (M14 melanoma): 562 nM; TGI (M14 melanoma): 2160 nM; GI50 (MALME-3M melanoma): 1210 nM; TGI (MALME-3M melanoma): 2820 nM; GI50 (MCF7 breast): 355 nM; TGI (MCF7 breast): 2060 nM; GI50 (MDA-MB-231 breast): 470 nM; TGI (MDA-MB-231 breast): 2710 nM; GI50 (MDA-MB-435): 522 nM; TGI (MDA-MB-435): 1880 nM; GI50 (MOLT-4 leukemia): 413 nM; TGI (MOLT-4 leukemia): 3400 nM; GI50 (NCI-H226 lung): 1160 nM; TGI (NCI-H226 lung): 3120 nM; GI50 (NCI-H23 lung): 499 nM; TGI (NCI-H23 lung): 2480 nM; GI50 (NCI-H460 lung): 275 nM; TGI (NCI-H460 lung): 1200 nM; GI50 (NCI-H522 lung): 379 nM; TGI (NCI-H522 lung): 1630 nM; GI50 (NCI/ADR-RES ovarian): 4030 nM; TGI (NCI/ADR-RES ovarian): 19800 nM; GI50 (OVCAR-3 ovarian): 588 nM; TGI (OVCAR-3 ovarian): 2860 nM; GI50 (OVCAR-4 ovarian): 484 nM; TGI (OVCAR-4 ovarian): 2870 nM; GI50 (OVCAR-5 ovarian): 531 nM; TGI (OVCAR-5 ovarian): 3280 nM; GI50 (OVCAR-8 ovarian): 415 nM; TGI (OVCAR-8 ovarian): 2450 nM; GI50 (PC-3 prostate): 544 nM; TGI (PC-3 prostate): 2540 nM; GI50 (RPMI-8226 leukemia): 497 nM; TGI (RPMI-8226 leukemia): 2740 nM; GI50 (RXF 393 renal): 580 nM; TGI (RXF 393 renal): 2220 nM; GI50 (SF-268 CNS): 577 nM; TGI (SF-268 CNS): 2660 nM; GI50 (SF-295 CNS): 523 nM; TGI (SF-295 CNS): 2320 nM; GI50 (SF-539 CNS): 508 nM; TGI (SF-539 CNS): 2350 nM; GI50 (SK-MEL-2 melanoma): 1320 nM; TGI (SK-MEL-2 melanoma): 2790 nM; GI50 (SK-MEL-28 melanoma): 1380 nM; TGI (SK-MEL-28 melanoma): 3060 nM; GI50 (SK-MEL-5 melanoma): 1550 nM; TGI (SK-MEL-5 melanoma): 2930 nM; GI50 (SK-OV-3 ovarian): 635 nM; TGI (SK-OV-3 ovarian): 3330 nM; GI50 (SN12C renal): 371 nM; TGI (SN12C renal): 2480 nM; GI50 (SNB-19 CNS): 500 nM; TGI (SNB-19 CNS): 3790 nM; GI50 (SNB-75 CNS): 744 nM; TGI (SNB-75 CNS): 2260 nM; GI50 (SW-620 colon): 304 nM; TGI (SW-620 colon): 2680 nM; GI50 (T-47D breast): 625 nM; TGI (T-47D breast): 3410 nM; GI50 (TK-10 renal): 587 nM; TGI (TK-10 renal): 3200 nM; GI50 (U251 CNS): 455 nM; TGI (U251 CNS): 2120 nM; GI50 (UACC-257 melanoma): 1820 nM; TGI (UACC-257 melanoma): 3480 nM; GI50 (UACC-62 melanoma): 807 nM; TGI (UACC-62 melanoma): 2540 nM; GI50 (UO-31 renal): 602 nM; TGI (UO-31 renal): 3190 nM
